According to patent publication US20230339988A1, “Metal Complexes Of Macrocycles And/Or Isoprenoids And/Or Linear Tetrapyrroles By Mechanochemistry (Grinding Or Milling), Preparation Method Thereof, Sunscreen/Concealer/UV Absorber Thereof, Self-Assembled Coating Material Thereof, Superamphiphilic Material Or Surfaces Thereof, Hair Dyeing Thereof …” (priority 2019, published 2023):

Assay: Solubility in carbon disulfide
Type: physicochemical
Conditions: test tube
Description: Carbon disulfide is a non-polar solvent which is commonly used as solvent for metal complexes.
It is clear that all of the reactants reacted by this mechanochemical process. The mechanochemical reaction promotes a chemical change.

COc1cc(/C=C/C(=O)CC(=O)/C=C/c2ccc(O)c(OC)c2)ccc1O [Curcumin]
solubility in carbon disulfide: completely soluble
